Source: patent US12522585B2, “Method for preparing 2-chloro-n-(1-cyanocyclopropyl)-5-[2′-methyl-5′-(pentafluoroethyl)-4′-(trifluoromethyl)-2′h-1,3′-bipyrazol-4-yl]benzamide” ([…], priority 2020, dated 2026)

Assay: TGA of the product prepared in example 6
Type: physicochemical
Conditions: up to 150° C.
From the text: The product prepared in example 6 was investigated by TGA.

Cn1nc(C(F)(F)C(F)(F)F)c(C(F)(F)F)c1-n1cc(-c2ccc(Cl)c(C(=O)NC3(C#N)CC3)c2)cn1 [example 6, 2-chloro-N-(1-cyanocyclopropyl)-5-[2′-methyl-5′-(pentafluoroethyl)-4′-(trifluoromethyl)-2′H-1,3′-bipyrazol-4-yl]benzamide]
loss of mass (TGA): no loss of mass
